Consider two molecules from publication PMC6385104, “Momilactones A and B Are α-Amylase and α-Glucosidase Inhibitors” (Molecules, 2019).

Each structure is given as a SMILES string.

In test [1] the target is T1, α-amylase (Aspergillus oryzae, UniProt P0C1B3).
T1 construct: purchased Sigma-Aldrich
The test is described as follows: biochemical. Format: biochemical. The note with it: for IC50: α-amylase from Aspergillus oryzae, starch substrate, 37 °C, pH 6.9, mean ± standard error, read-out: α-Amylase Inhibitory Assay (IC50) (converted). The method, then:
The inhibitory effect of MA and MB on α-amylase was assessed by starch-iodine method with a modified model as follows: in each well of a microplate (U-shape, Greiner Bio-one, NC, USA), 20 µL of each either MA or MB were pre-incubated with 20 µL of 1 U/mL α-amylase solution (from Aspergillus oryzae, Sigma-Aldrich, St. Louis, MO, USA) at 37 °C for 10 min. The reaction was initiated by pipetting 30 µL of starch (0.5% in deionized water) (soluble ACS reagent, Sigma-Aldrich, St. Louis, MO, USA). After 6 min incubation at 37 °C, an aliquot of 20 µL of hydrochloric acid (1 M) were added to stop reaction, followed by 120 µL of 0.25 mM aqueous iodine solution. The absorbance at 565 nm was read by a microplate reader (Multiskan^TM Microplate Spectrophotometer, Thermo Fisher Scientific, Osaka, Japan). The inhibitory activity of MA and MB on α-amylase was performed as the inhibition percentage that was calculated by the following formula:% inhibition = (A − C)/(B − C) × 100(2) where A is the absorbance of reaction with presence of MA or MB, B is the absorbance of reaction without enzyme, C is the absorbance of reaction with absence of the momilactones. […] Dilutions of test samples and dissolutions of enzyme used 20 mM sodium phosphate buffer (pH 6.9 comprising of 6 mM sodium chloride). α-Amylase solution and soluble starch solution were prepared and used on the day of experiment.

Test [2] addresses T2, α-glucosidase (Saccharomyces cerevisiae, UniProt P53341).
T2 construct: purchased Sigma-Aldrich
The test is described as follows: α-Glucosidase inhibition assay (pNPG substrate). Format: biochemical. The settings on record: for suppressive property on α-glucosidase relative to acarbose (fold greater than acarbose): ratio of IC50 values versus acarbose; for IC50: α-glucosidase from Saccharomyces cerevisiae, pNPG substrate, 25 °C, pH 7, mean ± standard error, read-out: α-Glucosidase Inhibitory Assay (IC50) (converted). The method, then:
The anti-α-glucosidase activity of MA and MB was evaluated using a method as described previously with some alterations. In brief, an amount of 20 µL methanolic stock solution of MA and MB were pre-mixed with an equal volume of 0.1 M potassium phosphate buffer (pH 7) and 40 µL of α-glucosidase (from Saccharomyces cerevisiae, Sigma-Aldrich, St. Louis, MO, USA) enzyme solution (0.5 U/mL in 0.1 M potassium phosphate buffer, pH 7). After 6 min incubation at 25 °C, a 20 µL aliquot of 5 mM p-nitrophenyl-α-D-glucopyranoside (pNPG) substrate (in 0.1 M potassium phosphate buffer, pH 7) was added to each reaction and the mixture was incubated for another 8 min. Eventually, the reaction was terminated by adding 100 µL of 0.2 M Na2CO3, and absorbance was recorded at 405 nm. […] IC50 value was obtained by the same way as above.

Setting [3] is: ratio of IC50 values, MB versus MA.

T2 sequence (P53341 whole entry): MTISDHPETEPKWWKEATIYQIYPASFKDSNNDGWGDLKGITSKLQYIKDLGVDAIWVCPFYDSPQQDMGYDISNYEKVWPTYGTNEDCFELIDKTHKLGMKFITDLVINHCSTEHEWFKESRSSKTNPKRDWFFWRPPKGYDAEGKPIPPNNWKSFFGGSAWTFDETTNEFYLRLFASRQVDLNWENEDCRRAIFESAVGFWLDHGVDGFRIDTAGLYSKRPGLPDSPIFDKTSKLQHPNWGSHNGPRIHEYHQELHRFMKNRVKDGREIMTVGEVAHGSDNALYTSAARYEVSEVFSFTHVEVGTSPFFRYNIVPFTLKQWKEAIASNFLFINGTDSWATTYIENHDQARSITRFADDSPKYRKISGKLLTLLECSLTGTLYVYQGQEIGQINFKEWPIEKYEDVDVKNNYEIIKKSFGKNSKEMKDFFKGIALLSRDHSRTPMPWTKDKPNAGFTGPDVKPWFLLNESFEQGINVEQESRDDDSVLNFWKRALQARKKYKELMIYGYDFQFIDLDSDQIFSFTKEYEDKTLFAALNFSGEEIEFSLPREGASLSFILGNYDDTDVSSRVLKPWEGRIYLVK

In the case of `C=C[C@]1(C)CC[C@H]2C(=C[C@H]3OC(=O)[C@@]4(C)C(=O)CC[C@@]2(C)[C@@H]34)C1` [MA, momilactone A], in test [1], the IC50 is 0.848 mM. In addition, in test [2], the “suppressive property on α-glucosidase relative to acarbose (fold greater than acarbose)” value is listed as 2.5 fold and the IC50 was 3.15 mM.

As for `C=CC1(C)CCC2C(=CC3OC(=O)C4(C)C3C23CCC4(O)OC3)C1` (centres unmarked) [MB, momilactone B], the “inhibitory activity on α-amylase of MB relative to MA (fold stronger)” value in test [1] (setting [3]) is on record as 1.8 fold. Further, the IC50 in test [1] was 0.444 mM. In test [2], the “suppressive property on α-glucosidase relative to acarbose (fold greater than acarbose)” value is 4.2 fold and the concentration for half-maximal inhibition (IC50) was 1.85 mM. The “inhibitory activity on α-glucosidase of MB relative to MA (fold stronger)” value in test [2] (setting [3]) was found to be 1.6 fold.

The IC50 is the concentration at which inhibition is half-maximal.
